Assay results as given in ChEMBL document CHEMBL1201862, “PubChem BioAssay data set” (2004).
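Briefly, cells in 96-well plates were exposed to five compound concentrations for 48 h, and endpoints were estimated by linear interpolation. At the GI50, growth is halved.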 Active and inactive are the calls of the source. Rule as the data show it: active = GI50 up to about 1.1 µM and inactive = higher.

What was measured:
Experiment in all cases: growth of human tumour cells (NCI), 48 h
A498 = test system: A498
A549 = test system: A549
DU-145 = test system: DU-145
K562 = test system: K562
KM12 = test system: KM12
M14 = test system: M14
MCF7 = test system: MCF7
MDA-N = test system: MDA-N
Malme-3M = test system: Malme-3M
NCI-H460 = test system: NCI-H460
PC-3 = test system: PC-3
SF-268 = test system: SF-268
SF-539 = test system: SF-539
SK-MEL-2 = test system: SK-MEL-2
SK-OV-3 = test system: SK-OV-3
SNB-75 = test system: SNB-75
TK-10 = test system: TK-10
U-251 = test system: U-251
UACC-257 = test system: UACC-257
UO-31 = test system: UO-31

Measured: GI50

CCN(CC)CC(O)C1CCC(c2ccccc2)CC1 (stereo not given)
inactive: A498 14.4 µM | A549 32.6 µM | DU-145 61 µM | K562 26.8 µM | KM12 24 µM | M14 25.1 µM | MCF7 22.5 µM | MDA-N 16.3 µM | Malme-3M 16.3 µM | NCI-H460 25.6 µM | PC-3 43.6 µM | SF-268 31.6 µM | SF-539 16.7 µM | SK-MEL-2 16.7 µM | SK-OV-3 16.1 µM | SNB-75 23.7 µM | TK-10 15.3 µM | U-251 19.8 µM | UACC-257 21 µM | UO-31 14.8 µM

N#Cc1c(O)n(-c2ccccc2)c(=O)c2c(N)n[nH]c12
inactive: A498 > 100 µM | A549 > 100 µM | DU-145 > 100 µM | K562 56.4 µM | KM12 42.4 µM | M14 > 100 µM | MCF7 > 100 µM | MDA-N > 100 µM | Malme-3M > 100 µM | NCI-H460 > 100 µM | PC-3 > 100 µM | SF-268 > 100 µM | SF-539 > 100 µM | SK-MEL-2 > 100 µM | SK-OV-3 > 100 µM | SNB-75 > 100 µM | TK-10 > 100 µM | U-251 > 100 µM | UACC-257 > 100 µM | UO-31 > 100 µM

COc1ccc(C(OCC2OC(n3cnc4c(=O)n(Cc5ccccc5[N+](=O)[O-])nnc43)C(O)C2O)(c2ccccc2)c2ccc(OC)cc2)cc1 (stereo not given)
inactive: A498 4.46 µM | A549 5.57 µM | DU-145 19.6 µM | K562 4.6 µM | KM12 13.1 µM | M14 8.51 µM | MCF7 4.28 µM | MDA-N 7.52 µM | Malme-3M 14.7 µM | NCI-H460 5.57 µM | PC-3 3.85 µM | SF-268 16 µM | SF-539 11.8 µM | SK-MEL-2 14.7 µM | SK-OV-3 20.4 µM | SNB-75 45.7 µM | TK-10 9.53 µM | U-251 11 µM | UACC-257 22.2 µM | UO-31 11.4 µM

COc1ccc(-c2nc(N)c(C#N)c3c2CCSc2ccc(C)cc2-3)cc1OC
inactive: A498 22.5 µM | A549 12.3 µM | DU-145 14.8 µM | K562 1.24 µM | KM12 6.84 µM | M14 29.1 µM | MCF7 12.1 µM | MDA-N 3.79 µM | Malme-3M 20.5 µM | NCI-H460 18.5 µM | PC-3 8.51 µM | SF-268 17.2 µM | SF-539 17.1 µM | SK-MEL-2 25.4 µM | SK-OV-3 10.9 µM | SNB-75 10.7 µM | TK-10 26.4 µM | U-251 18.1 µM | UACC-257 13.8 µM | UO-31 4.16 µM

Cc1cc(C)c(-n2c(-c3ccc(Br)cc3)cs/c2=N\N=C2C=C(C(C)(C)C)C(=O)C(C(C)(C)C)=C2)c(C)c1
inactive: A498 31.3 µM | A549 > 100 µM | DU-145 > 100 µM | K562 > 100 µM | KM12 > 100 µM | M14 > 100 µM | MCF7 > 100 µM | MDA-N > 100 µM | Malme-3M > 100 µM | NCI-H460 > 100 µM | PC-3 > 100 µM | SF-268 69.8 µM | SF-539 > 69.3 µM | SK-MEL-2 > 100 µM | SK-OV-3 > 72.9 µM | SNB-75 17.5 µM | TK-10 > 71.8 µM | U-251 31.2 µM | UACC-257 > 100 µM | UO-31 > 100 µM

C[N+](C)(C)CC1CCCCCCCCCCC1=O (stereo not given)
inactive: A498 > 100 µM | A549 > 100 µM | DU-145 > 100 µM | K562 > 100 µM | KM12 > 100 µM | M14 > 100 µM | MCF7 > 100 µM | MDA-N > 100 µM | Malme-3M > 100 µM | NCI-H460 > 100 µM | PC-3 > 100 µM | SF-268 > 100 µM | SF-539 > 100 µM | SK-MEL-2 > 100 µM | SK-OV-3 > 100 µM | SNB-75 > 100 µM | TK-10 > 100 µM | U-251 > 100 µM | UACC-257 > 100 µM | UO-31 > 100 µM

COc1cc2c(cc1OCc1ccccc1)NC(=O)[C@@H]1C[C@@H](O)CN1C2=O
inactive: A498 > 100 µM | A549 > 100 µM | DU-145 > 100 µM | K562 > 100 µM | KM12 > 100 µM | M14 > 100 µM | MCF7 > 100 µM | MDA-N > 100 µM | Malme-3M > 100 µM | NCI-H460 > 100 µM | PC-3 > 100 µM | SF-268 > 100 µM | SF-539 > 100 µM | SK-MEL-2 > 100 µM | SK-OV-3 > 100 µM | SNB-75 35.6 µM | TK-10 > 100 µM | U-251 > 100 µM | UACC-257 > 100 µM | UO-31 > 100 µM

O=C(/C=C/c1ccsc1)c1ccc(Cl)cc1
inactive: A498 45 µM | A549 > 100 µM | DU-145 > 100 µM | K562 20.6 µM | KM12 35.3 µM | M14 80.7 µM | MCF7 34.8 µM | MDA-N 59 µM | Malme-3M 33.1 µM | NCI-H460 > 100 µM | PC-3 70.8 µM | SF-268 79.4 µM | SF-539 76.7 µM | SK-MEL-2 > 100 µM | SK-OV-3 > 100 µM | SNB-75 > 100 µM | TK-10 > 100 µM | U-251 66.4 µM | UACC-257 > 100 µM | UO-31 31.1 µM

Cc1cc(=O)n2nc(CSc3nnc(Sc4cc(O)ccc4O)s3)sc2n1
inactive: A498 > 100 µM | A549 > 100 µM | DU-145 > 100 µM | K562 21.5 µM | KM12 > 100 µM | M14 79.1 µM | MCF7 14.2 µM | MDA-N 18.6 µM | Malme-3M 40.3 µM | NCI-H460 > 100 µM | PC-3 > 100 µM | SF-268 54.6 µM | SF-539 > 100 µM | SK-MEL-2 > 100 µM | SK-OV-3 > 100 µM | SNB-75 > 100 µM | TK-10 > 100 µM | U-251 35.8 µM | UACC-257 > 100 µM | UO-31 > 100 µM

C/N=C(N)/N=C(\N)Nc1cc2ccccc2c2ccccc12
inactive: A498 11.2 µM | A549 14.2 µM | DU-145 15.2 µM | K562 19.1 µM | KM12 17.1 µM | M14 17 µM | MCF7 13.2 µM | MDA-N 13.9 µM | Malme-3M 15 µM | NCI-H460 11.1 µM | PC-3 15.8 µM | SF-268 13.4 µM | SF-539 15.2 µM | SK-MEL-2 18 µM | SK-OV-3 16.3 µM | SNB-75 13 µM | TK-10 13 µM | U-251 15.2 µM | UACC-257 16.7 µM | UO-31 11.9 µM
